# Source: paper PMC9894685, “Abscisic acid agonists suitable for optimizing plant water use” (Frontiers in Plant Science, 2023)
# Columns and labels:
# RCAR1-ABI2 = target: T1, RCAR1-ABI2 (Arabidopsis thaliana, UniProt O04719+Q84MC7); assay: In vitro phosphatase assay, ABI2 with RCAR1; format: biochemical; settings: for Statistical significance of RCAR1-mediated inhibition of ABI2 phosphatase activity vs ABA / Statistical significance of RCAR1-mediated inhibition of ABI2 phosphatase activity vs CCP1: Fig. 3B
# T1 construct: 6xHis (N); made in house; host or cells: Escherichia coli BL21
# T1 sequence (Q84MC7 1-187): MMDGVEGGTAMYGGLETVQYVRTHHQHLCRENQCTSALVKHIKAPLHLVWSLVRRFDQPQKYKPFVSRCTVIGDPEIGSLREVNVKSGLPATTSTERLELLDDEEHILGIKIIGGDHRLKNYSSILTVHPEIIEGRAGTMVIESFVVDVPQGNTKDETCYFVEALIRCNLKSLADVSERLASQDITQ
# T1 sequence (O04719 1-423): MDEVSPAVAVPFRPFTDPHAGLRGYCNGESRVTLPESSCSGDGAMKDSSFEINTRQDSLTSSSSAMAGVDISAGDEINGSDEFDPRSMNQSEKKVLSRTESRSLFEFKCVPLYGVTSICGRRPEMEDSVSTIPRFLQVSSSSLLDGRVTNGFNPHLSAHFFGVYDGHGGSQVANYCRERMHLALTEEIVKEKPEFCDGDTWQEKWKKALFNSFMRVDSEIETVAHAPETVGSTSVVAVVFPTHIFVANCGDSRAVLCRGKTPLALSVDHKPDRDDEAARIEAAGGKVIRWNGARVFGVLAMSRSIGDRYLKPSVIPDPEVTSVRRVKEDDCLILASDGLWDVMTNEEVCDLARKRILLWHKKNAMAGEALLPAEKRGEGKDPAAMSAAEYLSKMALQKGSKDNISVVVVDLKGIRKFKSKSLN
# Protocol: (§1) Expression, purification, and analysis of RCAR and PP2C proteins were performed essentially as described ([Ruschhaupt et al., 2019]). Briefly, the ABA receptors RCAR1, RACR8, and RCAR11 were expressed with an aminoterminal histidine tag using the pSEVA431_LII_6xHIS::RCAR1/RCAR8/RCAR11. ABA coreceptors were expressed as histidine-tagged fusions with the maltose-binding protein using the pSEVA431_LII_6xHIS::MBP::ABI2/HAB1. All constructs were transformed and expressed in Escherichia coli strain BL21 and purified to homogeneity according to supplier’s instruction (GE Healthcare, Chicago, USA). The receptor assay was performed with 100 nM PP2C and a two-fold molar excess of RCAR. Values are means ± SD of three replicates. […] The maximum inhibition was set to 100% in the figures. The phosphatase activity was measured using 4-methylumbelliferyl-phosphate as a substrate ([Meinhard and Grill, 2001]). The increase in fluorescence was recorded over 25 min with excitation and emission wavelengths at 360 and 460 nm, respectively, using a Synergy 2 plate reader (Bio-Tec, Winooski, USA).
# Arabidopsis plants = assay: Progressive drought experiment: growth, water consumption, WUE; format: in vivo, Arabidopsis thaliana
# Protocol: The progressive drought experiment was performed as described ([Yang et al., 2016]). Briefly, 18-day-old Arabidopsis plantlets grown under well-watered and short-day conditions (8 h light with 150 µmol m^-2 s^-1 PAR, 22°C, 50% relative humidity, and 16 h dark with 17°C, 60% relative humidity) were transferred to 0.2 L pots loaded with water-saturated soil (33.4 ± 0.4 g dry soil with 148 ± 2 g water). At the onset of the progressive drought (day 0), water was withheld, and a sealed soil surface prevented evaporation. A slowly increasing water deficit was achieved by transpirational water loss from plants. The progressive drought experiment lasted for eight weeks until mock-treated plants had consumed all the plant-usable water. […] For measuring growth and water consumption, leaf rosettes were regularly photographed, and the pots were weighed. The projected leaf area of Arabidopsis rosettes was analyzed by using Photoshop Elements software (Adobe, San Jose, USA). The consumed water was calculated as the difference in pot weight between day 0 and the designated days. The retained water was expressed as the difference between the pot weight at the end of the drought (day 57) and the weight of the loaded dry soil. Above-ground material was harvested at day 57, and the biomass was determined after drying the material for three days at 60°C to achieve constant weight. WUE was calculated as the ratio of above-ground dry biomass to consumed water. The data for the mock- and ABA-treated plants in the progressive drought experiment were already published ([Yang et al., 2019]).
# RCAR1-HAB1 = target: T2, RCAR1-HAB1; assay: In vitro phosphatase assay, HAB1 with RCAR1; format: biochemical, Arabidopsis thaliana; settings: 100 nM HAB1, 200 nM RCAR1
# T2 construct: 6xHis (N); made in house; host or cells: Escherichia coli BL21
# Protocol: as §1
structure (smiles),measurement,setting,value
CCC(=C/C(=O)O)/C=C/C(O)(C(C)C)C1(C#N)CC1 (stereo not drawn) [CCP2],Statistical significance of RCAR1-mediated inhibition of ABI2 phosphatase activity vs ABA,RCAR1-ABI2; 0.003 µM,"ns (Otherwise, the difference is regarded as insignificant indicated as “ns”)"
same,Statistical significance of RCAR1-mediated inhibition of ABI2 phosphatase activity vs CCP1,RCAR1-ABI2; 0.003 µM,"ns (Otherwise, the difference is regarded as insignificant indicated as “ns”)"
same,Statistical significance of RCAR1-mediated inhibition of ABI2 phosphatase activity vs ABA,RCAR1-ABI2; 0.01 µM,"ns (Otherwise, the difference is regarded as insignificant indicated as “ns”)"
same,Statistical significance of RCAR1-mediated inhibition of ABI2 phosphatase activity vs CCP1,RCAR1-ABI2; 0.01 µM,"ns (Otherwise, the difference is regarded as insignificant indicated as “ns”)"
same,Statistical significance of RCAR1-mediated inhibition of ABI2 phosphatase activity vs ABA,RCAR1-ABI2; 0.03 µM,s (P < 0.05 (one-way ANOVA) is considered as a significant difference and expressed as “s”)
same,Statistical significance of RCAR1-mediated inhibition of ABI2 phosphatase activity vs CCP1,RCAR1-ABI2; 0.03 µM,"ns (Otherwise, the difference is regarded as insignificant indicated as “ns”)"
same,Statistical significance of RCAR1-mediated inhibition of ABI2 phosphatase activity vs ABA,RCAR1-ABI2; 0.1 µM,s (P < 0.05 (one-way ANOVA) is considered as a significant difference and expressed as “s”)
same,Statistical significance of RCAR1-mediated inhibition of ABI2 phosphatase activity vs CCP1,RCAR1-ABI2; 0.1 µM,s (P < 0.05 (one-way ANOVA) is considered as a significant difference and expressed as “s”)
same,IC50 relative to ABA (fold higher),RCAR1-ABI2; 100 nM ABI2 and 200 nM RCAR1,approximately 100 fold
same,Statistical significance of RCAR1-mediated inhibition of ABI2 phosphatase activity vs ABA,RCAR1-ABI2; 0.3 µM,s (P < 0.05 (one-way ANOVA) is considered as a significant difference and expressed as “s”)
same,Statistical significance of RCAR1-mediated inhibition of ABI2 phosphatase activity vs CCP1,RCAR1-ABI2; 0.3 µM,s (P < 0.05 (one-way ANOVA) is considered as a significant difference and expressed as “s”)
same,Statistical significance of RCAR1-mediated inhibition of ABI2 phosphatase activity vs ABA,RCAR1-ABI2; 1 µM,s (P < 0.05 (one-way ANOVA) is considered as a significant difference and expressed as “s”)
same,Statistical significance of RCAR1-mediated inhibition of ABI2 phosphatase activity vs CCP1,RCAR1-ABI2; 1 µM,"ns (Otherwise, the difference is regarded as insignificant indicated as “ns”)"
same,Statistical significance of RCAR1-mediated inhibition of ABI2 phosphatase activity vs ABA,RCAR1-ABI2; 3 µM,s (P < 0.05 (one-way ANOVA) is considered as a significant difference and expressed as “s”)
same,Statistical significance of RCAR1-mediated inhibition of ABI2 phosphatase activity vs CCP1,RCAR1-ABI2; 3 µM,"ns (Otherwise, the difference is regarded as insignificant indicated as “ns”)"
same,Statistical significance of RCAR1-mediated inhibition of ABI2 phosphatase activity vs ABA,RCAR1-ABI2; 10 µM,s (P < 0.05 (one-way ANOVA) is considered as a significant difference and expressed as “s”)
same,Statistical significance of RCAR1-mediated inhibition of ABI2 phosphatase activity vs CCP1,RCAR1-ABI2; 10 µM,"ns (Otherwise, the difference is regarded as insignificant indicated as “ns”)"
same,Statistical significance of RCAR1-mediated inhibition of ABI2 phosphatase activity vs ABA,RCAR1-ABI2; 30 µM,s (P < 0.05 (one-way ANOVA) is considered as a significant difference and expressed as “s”)
same,Statistical significance of RCAR1-mediated inhibition of ABI2 phosphatase activity vs CCP1,RCAR1-ABI2; 30 µM,"ns (Otherwise, the difference is regarded as insignificant indicated as “ns”)"
same,Statistical significance of RCAR1-mediated inhibition of ABI2 phosphatase activity vs ABA,RCAR1-ABI2; 100 µM,s (P < 0.05 (one-way ANOVA) is considered as a significant difference and expressed as “s”)
same,Statistical significance of RCAR1-mediated inhibition of ABI2 phosphatase activity vs CCP1,RCAR1-ABI2; 100 µM,"ns (Otherwise, the difference is regarded as insignificant indicated as “ns”)"
same,WUE increase,Arabidopsis plants; 30 µM solute concentration,~50%
same,Growth of leaf rosettes compared to mock,"Arabidopsis plants; 30 µM, three administrations",growth reduction
same,Plant-usable soil water transpired,Arabidopsis plants; end of drought experiment,~70%
same,WUE improvement compared to controls,Arabidopsis plants; end of drought experiment,up to 50%
same,Restriction of water consumption,"Arabidopsis plants; single administration, for two weeks",approximately 30%
same,IC50 with HAB1 compared to the ABI2 results,RCAR1-HAB1,lower IC50 value
